Results published in patent US9387263B2, “RbAp48 transgenic mice for drug discovery in age-related memory decline” (THE TRUSTEES OF COLUMBIA UNIVERSITY IN THE CITY OF NEW YORK, priority 2011, dated 2016).

Test system: RbAp48 mRNA expression in hippocampus
Test: RbAp48 transcript in situ hybridization in adult hippocampus after injection of kainic acid (synaptic stimulation)
Format: in vivo, mouse
Settings: wild type mice
Procedure: FIG. 14: RbAp48 transcript distribution in the adult hippocampus of wild type mice in either control conditions (injection of saline) of after injection of kainic acid (synaptic stimulation). Coronal cryosections were hybridized with radio-labelled oligonucleotides specific for RbAp48. […] This upregulation of RbAp48 lasted for four hours (8 hr to 12 hr time points).
RNA In Situ Hybridizations: RNA in situ hybridizations were performed on fresh frozen adult brain slices using 40-45 base anti-sense oligonucleotides^37. The oligonucleotides used for the detection of RbAp48-DN-Flag and RbAp48 transcripts can be found in supplemental table 3.
Treatment with Kainic Acid Kainic acid (Sigma) was injected intraperitoneally as previously described^42
Because RbAp48 regulates histone acetylation, it was explored whether RbAp48-DN affects the steady state levels of histone acetylation in the hippocampal formation using immunohistochemistry and image quantification analysis to measure histone acetylation. The initial focus was on the DG. […] To test for spatial specificity, the CA1 subregion was examined and no significant reduction in histone acetylation (FIGS. 12c & 12d) was found. As with behavior and fMRI, the effect of RbAp48-DN on H2B and H4 acetylation in the adult DG was reversed when its expression was turned off (mice on dox; FIGS. 12c & 12d).

C=C(C)[C@H]1CN[C@H](C(=O)O)[C@H]1CC(=O)O [kainic acid]
Duration of upregulation of RbAp48 (dentate gyrus, 8 hr to 12 hr time points after kainic acid): four | Expression of RbAp48 (transcript distribution in adult hippocampus) (intraperitoneal kainic acid vs saline, eight hours after application, radio-labelled oligonucleotide in situ hybridization): upregulated specifically in the dentate gyrus
